Source: ChEMBL document CHEMBL2034816, “Synthesis and molecular modelling studies of novel carbapeptide analogs for inhibition of HIV-1 protease” (Eur J Med Chem, 2012)

Legend:
Protease [1] = molecular target: T1, Protease (Human immunodeficiency virus 1, UniProt Q9YQ12); assay: Inhibition of HIV1 protease
Protease [2] = molecular target: T1, Protease; assay: Inhibition of South African HIV1 subtype C protease expressed in Escherichia coli BL21S4 (DE3)pLysS cells using Lys-Ala-Arg-Val-Nle-p-nitro-Phe-Glu-Ala-Nle-NH2 as substrate by spectrophotometry
[3] = Ratio of compound IC50 to lopinavir IC50 for human MT4 cells after 5 days by XTT assay; format: ADME, cell-based; conditions: read-out: Ratio IC50

T1 sequence (Q9YQ12 whole entry): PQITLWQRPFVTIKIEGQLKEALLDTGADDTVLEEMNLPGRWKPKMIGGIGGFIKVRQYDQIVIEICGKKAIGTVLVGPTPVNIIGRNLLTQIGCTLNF

SMILES | IC50 (Protease [1]) | IC50 (Protease [2]) | Ki (Protease [1]) | selectivity ratio at 120 h [3]
CC(C)[C@H](NC(=O)C[C@@H](NCc1ccccc1)C1O[C@@H]2OC(C)(C)O[C@@H]2[C@H]1OCc1ccccc1)C(=O)N[C@@H](C)C(=O)O (stereo partly specified) | – | 1.09 µM | – | > 5000
CC(C)[C@H](NC(=O)C[C@H](N)C1O[C@@H]2OC(C)(C)O[C@@H]2[C@H]1O)C(=O)N[C@@H](C)C(=O)O (stereo partly specified) | – | 1.01 µM | – | > 5000
O=C(N[C@@H]1Cc2ccccc2[C@@H]1O)C(OCc1ccccc1)[C@H](O)[C@@H](O)C(OCc1ccccc1)C(=O)N[C@@H]1Cc2ccccc2[C@@H]1O (stereo partly specified) | – | – | 0.00122 µM | –
CC(C)[C@H](NC(=O)C[C@@H](N)C1O[C@@H]2OC(C)(C)O[C@@H]2[C@H]1O)C(=O)N[C@@H](C)C(=O)O (stereo partly specified) | – | 0.95 µM | – | > 5000
CC(C)[C@H](NC(=O)[C@H](C)NC(=O)C[C@H](N)C1O[C@@H]2OC(C)(C)O[C@@H]2[C@H]1O)C(=O)O (stereo partly specified) | – | > 10 µM | – | > 5000
CC(C)[C@H](NC(=O)[C@H](C)NC(=O)C[C@H](NCc1ccccc1)C1O[C@@H]2OC(C)(C)O[C@@H]2[C@H]1O)C(=O)O (stereo partly specified) | – | 0.71 µM | – | > 5000
CC(C)[C@H](NC(=O)[C@H](C)NC(=O)C[C@@H](N)C1O[C@@H]2OC(C)(C)O[C@@H]2[C@H]1O)C(=O)O (stereo partly specified) | – | > 10 µM | – | > 5000

Now from value to molecule, other results behind:

IC50 (Protease [1]) | IC50 (Protease [2]) | Ki (Protease [1]) | SMILES | selectivity ratio at 120 h [3]
> 2000 µM | – | – | COC(=O)[C@H](CC(C)C)NC(=O)[C@H](Cc1ccccc1)NC(=O)[C@@H]1O[C@@H](C(=O)N[C@@H](Cc2ccccc2)C(C)N[C@@H](CC(C)C)C(=O)OC)[C@@H](O)[C@@H]1O (stereo partly specified) | –
– | 0.76 µM | – | CC(C)[C@H](NC(=O)[C@H](C)NC(=O)C[C@H](NCc1ccccc1)C1O[C@@H]2OC(C)(C)O[C@@H]2[C@H]1OCc1ccccc1)C(=O)O (stereo partly specified) | > 5000
0.00017 µM | – | – | CC(C)(C)OC(=O)N[C@@H](Cc1ccccc1)[C@@H](O)CC(C/C=C/c1ccccc1)C(=O)N[C@H](C(=O)NC[C@H]1OC(O)[C@H](O)[C@H]1O)C1CCCCC1 (stereo partly specified) | –
– | 1.02 µM | – | CC(C)[C@H](NC(=O)[C@H](C)NC(=O)C[C@@H](NCc1ccccc1)C1O[C@@H]2OC(C)(C)O[C@@H]2[C@H]1OCc1ccccc1)C(=O)O (stereo partly specified) | > 5000
– | 1.29 µM | – | CC(C)[C@H](NC(=O)C[C@H](NCc1ccccc1)C1O[C@@H]2OC(C)(C)O[C@@H]2[C@H]1OCc1ccccc1)C(=O)N[C@@H](C)C(=O)O (stereo partly specified) | > 5000
